Values belong to the molecule of their own block, whether it stands above or below them.
Columns and labels:
FSHR = biological target: T1, FSHR (Homo sapiens, UniProt P23945); assay: Selectivity test against FSHR; type: cell-based
T1 sequence (P23945 18-695): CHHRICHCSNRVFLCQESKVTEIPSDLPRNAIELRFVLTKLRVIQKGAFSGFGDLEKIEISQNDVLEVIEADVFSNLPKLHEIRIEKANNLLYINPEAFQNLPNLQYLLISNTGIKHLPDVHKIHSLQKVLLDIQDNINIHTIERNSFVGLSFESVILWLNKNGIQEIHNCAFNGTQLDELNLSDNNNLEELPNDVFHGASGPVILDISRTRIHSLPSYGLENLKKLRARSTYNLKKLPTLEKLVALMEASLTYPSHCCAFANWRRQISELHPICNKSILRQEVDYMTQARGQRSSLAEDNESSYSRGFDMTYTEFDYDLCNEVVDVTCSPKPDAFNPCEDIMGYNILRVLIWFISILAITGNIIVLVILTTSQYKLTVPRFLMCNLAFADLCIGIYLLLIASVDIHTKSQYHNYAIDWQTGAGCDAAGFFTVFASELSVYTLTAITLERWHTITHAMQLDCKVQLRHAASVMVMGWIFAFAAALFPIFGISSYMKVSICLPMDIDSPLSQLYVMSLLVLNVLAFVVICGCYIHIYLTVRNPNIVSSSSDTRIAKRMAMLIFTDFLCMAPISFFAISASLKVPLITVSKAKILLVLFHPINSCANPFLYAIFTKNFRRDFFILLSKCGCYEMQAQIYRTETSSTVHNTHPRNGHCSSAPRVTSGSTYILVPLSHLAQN

LHR = LHR (Homo sapiens, UniProt P22888); assay: Selectivity test against LHR; type: cell-based
LHR, sequence (P22888 27-699): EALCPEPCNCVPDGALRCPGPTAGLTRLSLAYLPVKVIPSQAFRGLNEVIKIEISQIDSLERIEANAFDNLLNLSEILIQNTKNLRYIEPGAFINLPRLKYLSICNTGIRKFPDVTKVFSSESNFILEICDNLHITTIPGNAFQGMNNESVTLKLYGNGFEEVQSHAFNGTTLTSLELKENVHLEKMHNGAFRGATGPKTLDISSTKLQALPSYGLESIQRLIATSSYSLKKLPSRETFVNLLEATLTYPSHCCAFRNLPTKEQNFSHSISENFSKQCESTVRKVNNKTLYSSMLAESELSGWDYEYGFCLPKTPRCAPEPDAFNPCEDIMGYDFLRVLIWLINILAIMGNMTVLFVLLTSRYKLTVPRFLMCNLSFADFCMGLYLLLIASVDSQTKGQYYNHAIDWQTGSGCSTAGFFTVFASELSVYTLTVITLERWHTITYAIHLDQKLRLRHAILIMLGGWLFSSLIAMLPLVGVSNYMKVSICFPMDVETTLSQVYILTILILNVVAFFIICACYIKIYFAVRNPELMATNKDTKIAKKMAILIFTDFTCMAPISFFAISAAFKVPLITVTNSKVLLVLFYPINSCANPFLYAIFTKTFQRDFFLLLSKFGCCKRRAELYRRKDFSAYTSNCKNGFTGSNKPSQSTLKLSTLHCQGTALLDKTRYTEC

TSHR [1] = biological target: T2, TSHR (Homo sapiens, UniProt P16473); assay: ELISA cAMP assay in HEK-EM293 cells expressing TSHR; type: cell-based; conditions: for fold more potent than the hit compound 1a: potency ratio versus 1a
T2 sequence (P16473 21-764): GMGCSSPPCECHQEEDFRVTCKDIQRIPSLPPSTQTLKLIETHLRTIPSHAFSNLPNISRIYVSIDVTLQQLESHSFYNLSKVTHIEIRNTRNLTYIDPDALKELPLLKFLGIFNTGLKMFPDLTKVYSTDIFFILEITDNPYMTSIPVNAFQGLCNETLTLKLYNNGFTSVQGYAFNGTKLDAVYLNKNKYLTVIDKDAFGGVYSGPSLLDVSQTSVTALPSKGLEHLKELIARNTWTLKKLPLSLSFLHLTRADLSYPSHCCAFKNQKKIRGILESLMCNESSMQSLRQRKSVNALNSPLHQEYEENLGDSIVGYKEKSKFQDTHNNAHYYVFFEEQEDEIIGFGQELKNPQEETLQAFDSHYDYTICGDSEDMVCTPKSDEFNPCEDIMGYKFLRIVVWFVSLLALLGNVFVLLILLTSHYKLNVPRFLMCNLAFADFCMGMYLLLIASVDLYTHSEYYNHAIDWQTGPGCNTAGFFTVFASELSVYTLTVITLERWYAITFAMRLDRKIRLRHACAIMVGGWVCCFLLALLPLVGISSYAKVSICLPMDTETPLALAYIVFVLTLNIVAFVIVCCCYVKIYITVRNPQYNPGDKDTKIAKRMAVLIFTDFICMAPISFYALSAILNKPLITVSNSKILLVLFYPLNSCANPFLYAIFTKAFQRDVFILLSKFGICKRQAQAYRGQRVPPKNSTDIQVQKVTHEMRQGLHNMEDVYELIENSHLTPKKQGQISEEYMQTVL

TSHR [2] = biological target: T2, TSHR; conditions: cited from earlier work
[3] = degradation at pH = 2; cited from earlier work
TSHR [4] = conditions: mice; cited from earlier work

Compound: COc1ccc(C2Nc3ccccc3C(=O)N2Cc2ccco2)cc1COc1ccc(NC(C)=O)cc1 (stereo not shown) [Compound 1a]
FSHR efficacy (FSHR): no detectable
LHR efficacy (LHR): no detectable

Compound: COc1ccc(C2Nc3cccc(O)c3C(=O)N2Cc2ccccc2)cc1COc1ccc(NC(C)=O)cc1 (stereo not shown) [Compound 1b]
Emax (TSHR [1]; HEK-EM293): 100%
fold improvement in potency (TSHR [1]; R2 OH versus H (1g) or F (1e)): 3 fold
fold more potent than the hit compound 1a (TSHR [1]): at least 10 fold
TSHR agonism (type) (TSHR [2]): full TSHR agonist
half-life [3]: 3 h
in vivo efficacy (TSHR [4]): in vivo efficacy in mice

Compound: COc1ccc(C2Nc3ccccc3C(=O)N2Cc2ccccc2)cc1COc1ccc(NC(C)=O)cc1 (stereo not shown) [Compound 1g]
fold more potent than the hit compound 1a (TSHR [1]): 4 fold

Compound: COc1ccc(C2Nc3ccccc3C(=O)N2CCc2ccccc2)cc1COc1ccc(NC(C)=O)cc1 (stereo not shown) [Compound 1m]
fold reduction in potency (TSHR [1]; versus benzyl analogue 1g): 2 fold

The next lines start with results.

fold more potent than the hit compound 1a (TSHR [1]): at least 10 fold
Compound: COc1ccc(C2Nc3ccccc3C(=O)N2Cc2ccccc2)cc1CSc1ccc(NC(C)=O)cc1 (stereo not shown) [Compound 8a]

fold increase in potency (TSHR [1]; Y oxygen replaced with sulfur (8b vs 1b, 8a vs 1g)): ≤ 5 fold
Compound: COc1ccc(C2Nc3cccc(O)c3C(=O)N2Cc2ccccc2)cc1CSc1ccc(NC(C)=O)cc1 (stereo not shown) [Compound 8b]
selectivity for TSHR over FSHR (FSHR): maintain selectivity for TSHR over LHR and FSHR
selectivity for TSHR over LHR (LHR): maintain selectivity for TSHR over LHR and FSHR

selectivity for TSHR over FSHR (FSHR): selective for TSHR over LHR and FSHR
selectivity for TSHR over LHR (LHR): selective for TSHR over LHR and FSHR
Compound: COc1ccc(-c2nc3cccc(O)c3c(=O)n2Cc2ccccc2)cc1COc1ccc(NC(C)=O)cc1 [Compound 9c]

— publication PMC3293179 (MedChemComm, 2011)
